Assay results published in the NIST ThermoML archive (doi:10.1021/acs.jced.5b01007).

Settings: Fluid (supercritical or subcritical phases), Frequency=8 MHz, Pulse-echo method

O=O [oxygen]
Settings | speed of sound [m/s]
299.96 K, 14860 kPa | 352.65
299.97 K, 9920 kPa | 340.22
299.97 K, 20050 kPa | 370.99
299.97 K, 25030 kPa | 392.82
299.97 K, 29960 kPa | 417.33
299.97 K, 34960 kPa | 443.87
299.97 K, 39960 kPa | 471.2
299.97 K, 45030 kPa | 498.92
299.97 K, 50010 kPa | 525.82
299.97 K, 55140 kPa | 552.86
299.97 K, 60160 kPa | 578.47
299.97 K, 64960 kPa | 602.28
299.97 K, 69690 kPa | 624.95
300 K, 74030 kPa | 645.07
349.98 K, 8030 kPa | 367.01
349.98 K, 29990 kPa | 433.29
349.98 K, 49900 kPa | 518.73
349.98 K, 78850 kPa | 641.85
349.99 K, 10070 kPa | 370.9
349.99 K, 14980 kPa | 382.53
349.99 K, 19640 kPa | 396.03
349.99 K, 24980 kPa | 414.2
349.99 K, 35080 kPa | 454.09
349.99 K, 45020 kPa | 497.15
349.99 K, 55110 kPa | 541.66
349.99 K, 59910 kPa | 562.59
349.99 K, 68690 kPa | 600.07
350.03 K, 40050 kPa | 475.39
350.03 K, 64930 kPa | 584.11
399.05 K, 83180 kPa | 648.15
399.06 K, 19900 kPa | 421.58
399.07 K, 74590 kPa | 617.2
399.07 K, 79990 kPa | 636.78
399.08 K, 34890 kPa | 469.6
399.08 K, 39970 kPa | 487.82
399.08 K, 44980 kPa | 506.29
399.08 K, 54970 kPa | 543.88
399.08 K, 60070 kPa | 563.14
399.08 K, 64900 kPa | 581.28
399.08 K, 70100 kPa | 600.65
399.09 K, 4960 kPa | 388.03
399.09 K, 6020 kPa | 389.77
399.09 K, 7950 kPa | 393.26
399.09 K, 25010 kPa | 436.72
399.09 K, 29900 kPa | 452.47
399.09 K, 50090 kPa | 525.43
399.1 K, 15010 kPa | 408.72
399.11 K, 9980 kPa | 397.34
449.79 K, 87520 kPa | 660.32
449.87 K, 80010 kPa | 636.12
449.88 K, 75270 kPa | 620.61
449.88 K, 85020 kPa | 652.33
449.89 K, 65180 kPa | 587.16
449.89 K, 70120 kPa | 603.58
449.9 K, 55090 kPa | 553.54
449.9 K, 60070 kPa | 570.12
449.93 K, 35030 kPa | 488.6
449.93 K, 40050 kPa | 504.35
449.94 K, 6010 kPa | 414.33
449.94 K, 9970 kPa | 422.01
449.94 K, 15000 kPa | 433.26
449.94 K, 20010 kPa | 445.6
449.94 K, 24940 kPa | 458.85
449.94 K, 30000 kPa | 473.4
449.94 K, 45090 kPa | 520.58
449.94 K, 49910 kPa | 536.52
449.95 K, 8010 kPa | 418.16
449.95 K, 88050 kPa | 662.01
498.83 K, 69940 kPa | 610.55
498.89 K, 60010 kPa | 580.54
498.89 K, 65000 kPa | 595.63
498.9 K, 95000 kPa | 684.96
498.91 K, 74960 kPa | 625.69
498.91 K, 90000 kPa | 670.28
498.91 K, 100060 kPa | 699.53
498.92 K, 79990 kPa | 640.74
498.93 K, 84890 kPa | 655.27
498.94 K, 10000 kPa | 444.64
498.99 K, 40010 kPa | 521.13
499 K, 29910 kPa | 492.81
499 K, 34730 kPa | 506.11
499 K, 44900 kPa | 535.41
499.01 K, 24900 kPa | 479.52
499.02 K, 14940 kPa | 455.31
499.03 K, 4920 kPa | 434.71
499.03 K, 5910 kPa | 436.52
499.03 K, 7820 kPa | 440.23
499.03 K, 49930 kPa | 550.29
499.03 K, 54810 kPa | 564.89
499.04 K, 20070 kPa | 467.39
